Earlier results as cited in patent US20250073222A1, “METHODS FOR THE TREATMENT AND PREVENTION OF NON-VIRAL TICK-BORNE DISEASES AND SYMPTOMS THEREOF” (60 DEGREES PHARMACEUTICALS LLC, priority 2023, published 2025).
Read-outs that look alike come from different tables or passages of the source.

Experiments:
[1] = system: Babesia microti; conditions: animals; cited from earlier work
[2] = system: Babesia parasites; conditions: 100 microM for 2 h; cited from earlier work
[3] = system: Trypanosome brucei blood stage forms; conditions: exposure for 90 minutes; cited from earlier work
[4] = system: Treponema palludum; conditions: 50 or 100 microM for two hours in a 3% oxygen atmosphere; cited from earlier work
[5] = system: various serovars of Leptospira; conditions: exposure for as little as 30 min; cited from earlier work
[6] = system: Pneumocystis; conditions: mice; cited from earlier work
[7] = system: Babesia; conditions: mice, single doses; cited from earlier work
[8] = system: P. falciparum gametocytes; conditions: single dose combined with dihydroartemisinin/piperaquine; cited from earlier work
[9] = system: gametocytes of P. falciparum; conditions: cited from earlier work
[10] = cited from earlier work
[11] = system: Babesia; conditions: one and three doses, immunocompromised mice and dogs; cited from earlier work
[12] = coadministered with chloroquine; cited from earlier work
[13] = loading dose of 600 mg over three days followed by weekly 200 mg for up to one year, cited from earlier work
[14] = system: Plasmodium vivax; conditions: 400 mg/day for three days, monotherapy, symptomatic P. vivax malaria patients; cited from earlier work
[15] = system: Plasmodium falciparum; conditions: 600 mg loading dose followed by 200 mg; parasite load three days after last dose; non-immune volunteers; cited from earlier work
[16] = system: B. rodhaini; conditions: cited from earlier work
[17] = system: extracellular blood stage forms of Trypanosoma brucei; conditions: cited from earlier work
[18] = system: intracellular amastigote forms of Leishmania major; conditions: cited from earlier work
[19] = system: free-living gram-negative bacteria and free-living gram-positive bacteria; conditions: cited from earlier work
[20] = system: B. gibsoni; conditions: splenectomized dogs; cited from earlier work
[21] = system: B. microti; conditions: one patient, prior rituximab; tafenoquine: approved malaria prevention dose as monotherapy for six weeks; cited from earlier work
[22] = single dose of 20 mg/kg, Balb/c (immunocompetent) mice
[23] = single dose of 20 mg/kg, immunocompromised SCID mice

Compound: COc1cc(NC(C)CCCN)c2nccc(C)c2c1 (centres unmarked) [4-methyl substituted primaquine]
- efficacy against Babesia microti compared with primaquine [1]: more efficacious than primaquine

Compound: OO [hydrogen peroxide]
- effect on Babesia parasites in vitro [2]: kills Babesia parasites in vitro
- concentration that killed blood stage forms [3]: approximately 140 microM
- effect on growth [4]: significantly inhibited
- concentrations that killed [5]: < 180 µM

Compound: COc1cc(NC(C)CCCN)c2ncccc2c1 (centres unmarked) [primaquine]
- cure of Pneumocystis infections [6]: must be combined with clindamycin to achieve the same outcome
- dose that cleared Babesia parasitemia [7]: 100 mg/kg
- time until gametocyte infectivity was statistically lower than reference values [8]: by two days post-dosing
- effect on gametocytes of P. falciparum [9]: killed by site specific (in bone marrow) excess production of hydrogen peroxide
- half-life ([10]; in vivo): approximately 6 hours

Compound: COc1cc(C)c2c(Oc3cccc(C(F)(F)F)c3)c(OC)cc(NC(C)CCCN)c2n1 (centres unmarked) [tafenoquine, N(4)-[2,6-Dimethoxy-4-methyl-5-[3-(trifluoromethyl)phenoxy]quinolin-8-yl]pentane-1,4-diamine]
- clearance and cure of Babesia [11]: sufficient to clear and cure Babesia
- cure of Pneumocystis infections [6]: can be administered as monotherapy to cure Pneumocystis infections
- dose that cleared Babesia parasitemia [7]: 20 mg/kg
- effect on QTC prolongation of chloroquine [12]: did not increase the QTC prolongation
- overall rate of adverse events relative to placebo [13]: without increasing the overall rate of adverse events
- specific adverse events with increased risk ([13]; reversible, not clinically significant): gastrointestinal effects [mild to moderate] and cornea verticillata
- time by which all patients cleared blood stage parasites [14]: ≤ 8 days
- development of blood stage parasitemia after challenge [15]: none of the tafenoquine subjects did
- effect on B. rodhaini blood stages (vacuoles) ([16]; single dose of 20 mg/kg in mice): induces the formation of large vacuoles
- parasitemia [16, 22]: cleared parasitemia
- survival [16, 22]: 100%
- death [16, 23]: death was therefore delayed
- parasitemia [16, 23]: cleared initial parasitemia but did not prevent relapses
- potency of killing [17]: < 4 µM
- potency of killing [18]: < 4 µM
- activity against gram-negative versus gram-positive bacteria [19]: much less active against free-living gram-negative bacteria than free-living gram-positive bacteria
- symptoms of infection such as anorexia, elevated respiration and pulse [20]: alleviated
- clinical outcome of the regimen [21]: the patient was cured
- half-life in vivo compared with primaquine ([10]; FIG. 1A and FIG. 1B legend): longer half-life in vivo
